Measurements reported in the supplement of paper PMC10627819.

How the values were obtained:
Test in all cases: fitness (endpoint OD595 vs no drug) (fraction); higher = more growth
[1] = test system: B. subtilis 168
Method in brief: (§1)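 Fitness expresses the optical density reached at the stationary-phase transition as a fraction of the robust mean of no-drug control wells. It is capped at 1. Measurements were OD595 every 30 min for 14 h at 37 °C after inoculation of 384-well plates at OD595 0.01 (30 µl, or 55 µl for S. pneumoniae), minus the first reading.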

[2] = test system: S. pneumoniae D39V
Method in brief: as §1

[3] = test system: S. aureus Newman
Method in brief: as §1
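Also: OD595 on entry to stationary phase over no-drug wells; at most 1.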

O=C(O)[C@H]1/C(=C/CO)O[C@@H]2CC(=O)N21 [Clavulanic acid] + CO/N=C(\C(=O)N[C@@H]1C(=O)N2C(C(=O)O)=C(COC(N)=O)CS[C@H]12)c1ccco1 [Cefuroxime]
fitness, [1]
Details	first compound 1.5 µg/mL	first compound 3 µg/mL	first compound 6 µg/mL
partner 0.04875 µg/mL	0.661	0.626	0.562
partner 0.0975 µg/mL	0.651	0.607	0.542
partner 0.195 µg/mL	–	0.345	0.359

fitness, [1], one replicate
Details	partner 0.39 µg/mL	partner 0.78 µg/mL	partner 1.562 µg/mL	partner 3.125 µg/mL	partner 6.25 µg/mL
first compound 1.5 µg/mL	0.288	0.232	0.353	0.235	0.202
first compound 3 µg/mL	0.0208	0.0871	0.319	0.276	0.238
first compound 6 µg/mL	0.216	0.172	0.241	0.18	0.142

O=C(O)[C@H]1/C(=C/CO)O[C@@H]2CC(=O)N21 [Clavulanic acid] + CO[C@@H]1[C@@H](OC(N)=O)[C@@H](O)[C@H](Oc2ccc3c(O)c(NC(=O)c4ccc(O)c(CC=C(C)C)c4)c(=O)oc3c2C)OC1(C)C [Novobiocin]
fitness, [1]
Details	first compound 1.5 µg/mL	first compound 3 µg/mL	first compound 6 µg/mL
partner 0.0125 µg/mL	0.932	0.895	0.759
partner 0.025 µg/mL	0.935	0.89	0.727
partner 0.05 µg/mL	0.951	0.914	0.798

fitness, [1], one replicate
Details	partner 0.1 µg/mL	partner 0.125 µg/mL	partner 0.2 µg/mL	partner 0.25 µg/mL	partner 0.5 µg/mL
first compound 1.5 µg/mL	0.893	0.827	0.975	0.841	0.511
first compound 3 µg/mL	0.937	0.815	0.989	0.774	0.385
first compound 6 µg/mL	0.827	0.775	0.796	0.726	0.209

O=C(O)[C@H]1/C(=C/CO)O[C@@H]2CC(=O)N21 [Clavulanic acid] + CO[C@H]1/C=C/O[C@@]2(C)Oc3c(C)c(O)c4c(O)c(c(/C=N/N5CCN(C)CC5)c(O)c4c3C2=O)NC(=O)/C(C)=C\C=C\[C@H](C)[C@H](O)[C@@H](C)[C@@H](O)[C@@H](C)[C@H](OC(C)=O)[C@@H]1C [Rifampicin]
fitness, [2]
Details	first compound 0.5 µg/mL	first compound 1 µg/mL	first compound 2 µg/mL
partner 0.025 µg/mL	≥ 1	0.919	–
partner 0.1 µg/mL	–	0.421	0.239

[2], partner 0.2 µg/mL, one replicate
Details	fitness
first compound 0.5 µg/mL	0
first compound 1 µg/mL	0
first compound 2 µg/mL	0

O=C(O)[C@H]1/C(=C/CO)O[C@@H]2CC(=O)N21 [Clavulanic acid] + COc1cc(Cc2cnc(N)nc2N)cc(OC)c1OC [Trimethoprim]
fitness, [1], one replicate
Details	partner 0.1 µg/mL	partner 0.2 µg/mL	partner 0.4 µg/mL	partner 1 µg/mL	partner 2 µg/mL
first compound 1.5 µg/mL	0.89	0.757	0.559	0.507	0.392
first compound 3 µg/mL	0.853	0.693	0.537	0.455	0.388
first compound 6 µg/mL	0.728	0.687	0.482	0.421	0.273

fitness, [1]
Details	first compound 1.5 µg/mL	first compound 3 µg/mL	first compound 6 µg/mL
partner 0.125 µg/mL	0.647	0.618	0.55
partner 0.25 µg/mL	0.511	–	–
partner 0.5 µg/mL	0.505	0.494	0.457

O=C(O)[C@H]1/C(=C/CO)O[C@@H]2CC(=O)N21 [Clavulanic acid] + C[C@@H](O)[C@H]1C(=O)N2C(C(=O)O)=C(SCCNC=N)C[C@H]12 [Imipenem]
fitness, [2]
Details	partner 0.005 µg/mL	partner 0.0065 µg/mL	partner 0.01 µg/mL	partner 0.013 µg/mL	partner 0.02 µg/mL	partner 0.026 µg/mL
first compound 0.5 µg/mL	0.976	0.974	0.987	0.968	0.935	0.883
first compound 1 µg/mL	0.887	0.92	0.899	0.891	0.888	0.892
first compound 2 µg/mL	0.737	0.82	0.724	0.791	0.655	0.789

O=C(O)[C@H]1/C(=C/CO)O[C@@H]2CC(=O)N21 [Clavulanic acid] + C[C@H]1COc2c(N3CCN(C)CC3)c(F)cc3c(=O)c(C(=O)O)cn1c23 [Levofloxacin]
fitness, [1], one replicate
Details	first compound 1.5 µg/mL	first compound 3 µg/mL	first compound 6 µg/mL
partner 0.001 µg/mL	0.908	0.852	0.776
partner 0.0078 µg/mL	0.919	0.872	0.82

Details	fitness
[1], first compound 1.5 µg/mL, partner 0.002 µg/mL	0.836
[1], first compound 1.5 µg/mL, partner 0.0039 µg/mL	0.821
[1], first compound 1.5 µg/mL, partner 0.0312 µg/mL	0.0412
[1], first compound 1.5 µg/mL, partner 0.0625 µg/mL	0.0486
[1], first compound 1.5 µg/mL, partner 0.125 µg/mL	0.0536
[1], first compound 3 µg/mL, partner 0.002 µg/mL	0.829
[1], first compound 3 µg/mL, partner 0.0039 µg/mL	0.81
[1], first compound 3 µg/mL, partner 0.0312 µg/mL	0.0294
[1], first compound 3 µg/mL, partner 0.0625 µg/mL	0.0351
[1], first compound 3 µg/mL, partner 0.125 µg/mL	0.0411
[1], first compound 6 µg/mL, partner 0.002 µg/mL	0.734
[1], first compound 6 µg/mL, partner 0.0039 µg/mL	0.72
[1], first compound 6 µg/mL, partner 0.0312 µg/mL	0.0384
[1], first compound 6 µg/mL, partner 0.0625 µg/mL	0.0352
[1], first compound 6 µg/mL, partner 0.125 µg/mL	0.0346
[2], first compound 0.5 µg/mL, partner 0.1725 µg/mL	0.948
[2], first compound 0.5 µg/mL, partner 0.2 µg/mL	0.914
[2], first compound 0.5 µg/mL, partner 0.345 µg/mL	0.881
[2], first compound 0.5 µg/mL, partner 0.4 µg/mL	0.681
[2], first compound 0.5 µg/mL, partner 0.69 µg/mL	0.61
[2], first compound 0.5 µg/mL, partner 0.8 µg/mL	0.134
[2], first compound 1 µg/mL, partner 0.1725 µg/mL	0.927
[2], first compound 1 µg/mL, partner 0.2 µg/mL	0.805
[2], first compound 1 µg/mL, partner 0.345 µg/mL	0.842
[2], first compound 1 µg/mL, partner 0.4 µg/mL	0.599
[2], first compound 1 µg/mL, partner 0.8 µg/mL	0.242
[2], first compound 2 µg/mL, partner 0.1725 µg/mL	0.841
[2], first compound 2 µg/mL, partner 0.2 µg/mL	0.623
[2], first compound 2 µg/mL, partner 0.345 µg/mL	0.735
[2], first compound 2 µg/mL, partner 0.4 µg/mL	0.431
[2], first compound 2 µg/mL, partner 0.69 µg/mL	0.423
[2], first compound 2 µg/mL, partner 0.8 µg/mL	0.103

O=C(O)[C@H]1/C(=C/CO)O[C@@H]2CC(=O)N21 [Clavulanic acid] + C[C@H]1c2cccc(O)c2C(=O)C2=C(O)[C@]3(O)C(=O)C(C(N)=O)=C(O)[C@@H](N(C)C)[C@@H]3[C@@H](O)[C@@H]21 [Doxycycline]
Details	fitness
[1], first compound 1.5 µg/mL, partner 0.02 µg/mL	0.862
[1], first compound 1.5 µg/mL, partner 0.04 µg/mL	0.762
[1], first compound 3 µg/mL, partner 0.02 µg/mL	0.852
[1], first compound 3 µg/mL, partner 0.04 µg/mL	0.721
[1], first compound 6 µg/mL, partner 0.02 µg/mL	0.728
[1], first compound 6 µg/mL, partner 0.04 µg/mL	0.628
[1], first compound 6 µg/mL, partner 0.08 µg/mL	0.375
[2], first compound 0.5 µg/mL, partner 0.0155 µg/mL	0.929
[2], first compound 1 µg/mL, partner 0.0155 µg/mL	0.892
[2], first compound 1 µg/mL, partner 0.031 µg/mL	0.615
[2], first compound 1 µg/mL, partner 0.062 µg/mL	0.429
[2], first compound 2 µg/mL, partner 0.0155 µg/mL	0.73
[2], first compound 2 µg/mL, partner 0.031 µg/mL	0.45
[2], first compound 2 µg/mL, partner 0.062 µg/mL	0.281

fitness, [2], one replicate
Details	first compound 0.5 µg/mL	first compound 1 µg/mL	first compound 2 µg/mL
partner 0.003875 µg/mL	≥ 1	0.985	0.9
partner 0.00775 µg/mL	0.998	0.964	0.895

O=C(O)[C@H]1/C(=C/CO)O[C@@H]2CC(=O)N21 [Clavulanic acid] + Clc1ccc(COC(Cn2ccnc2)c2ccc(Cl)cc2Cl)c(Cl)c1 [Miconazole]
fitness, [2]
Details	partner 1.073 µg/mL	partner 1.25 µg/mL	partner 2.145 µg/mL	partner 2.5 µg/mL	partner 4.29 µg/mL	partner 5 µg/mL
first compound 0.5 µg/mL	≥ 1	0.956	0.973	0.981	0.924	0.94
first compound 1 µg/mL	≥ 1	0.876	0.923	0.873	0.883	0.838
first compound 2 µg/mL	0.898	0.715	0.787	0.66	0.754	0.653

O=C(O)[C@H]1/C(=C/CO)O[C@@H]2CC(=O)N21 [Clavulanic acid] + O=C1CN(/N=C/c2ccc([N+](=O)[O-])o2)C(=O)N1 [Nitrofurantoin]
fitness, [2]
Details	partner 1.285 µg/mL	partner 2 µg/mL	partner 2.57 µg/mL	partner 4 µg/mL	partner 8 µg/mL
first compound 0.5 µg/mL	0.916	0.92	0.943	0.878	0.628
first compound 1 µg/mL	0.933	0.887	0.94	0.773	0.544
first compound 2 µg/mL	0.883	0.658	0.874	0.59	0.358

[2], partner 5.14 µg/mL, one replicate
Details	fitness
first compound 0.5 µg/mL	0.898
first compound 1 µg/mL	0.852
first compound 2 µg/mL	0.817

CNC(C)C1CCC(N)C(OC2C(N)CC(N)C(OC3OCC(C)(O)C(NC)C3O)C2O)O1 (stereo not drawn) [Gentamicin] + CC1(C)S[C@@H]2[C@H](NC(=O)Cc3ccccc3)C(=O)N2[C@H]1C(=O)O [Penicillin G]
fitness, [3], main component drawn
Details	first compound 0.375 µg/mL	first compound 0.5 µg/mL	first compound 0.75 µg/mL	first compound 1 µg/mL	first compound 1.5 µg/mL	first compound 2 µg/mL
partner 0.0195 µg/mL	0.836	0.901	0.82	0.937	0.865	0.98
partner 0.039 µg/mL	0.948	0.897	0.914	0.939	0.944	0.96
partner 0.078 µg/mL	0.944	0.842	0.925	0.886	0.918	0.924

Clc1ccc(COC(Cn2ccnc2)c2ccc(Cl)cc2Cl)c(Cl)c1 (stereo not drawn) [Miconazole] + CO[C@@]12[C@H](COC(N)=O)C3=C(C(=O)C(C)=C(N)C3=O)N1C[C@@H]1N[C@@H]12 [Mitomycin C]
fitness, [2]
Details	first compound 1.073 µg/mL	first compound 1.25 µg/mL	first compound 2.145 µg/mL	first compound 2.5 µg/mL	first compound 4.29 µg/mL	first compound 5 µg/mL
partner 0.001075 µg/mL	–	0.983	–	0.979	–	0.95
partner 0.002 µg/mL	0.882	–	0.883	–	0.779	–
partner 0.00215 µg/mL	–	0.88	–	0.898	–	0.907
partner 0.004 µg/mL	0.854	–	0.826	–	0.742	–
partner 0.0043 µg/mL	–	0.786	–	0.777	–	0.812
partner 0.008 µg/mL	0.718	–	0.748	–	0.64	–

Clc1ccc(COC(Cn2ccnc2)c2ccc(Cl)cc2Cl)c(Cl)c1 (stereo not drawn) [Miconazole] + Cc1ncc([N+](=O)[O-])n1CCO [Metronidazole]
fitness, [2]
Details	first compound 1.073 µg/mL	first compound 1.25 µg/mL	first compound 2.145 µg/mL	first compound 2.5 µg/mL	first compound 4.29 µg/mL	first compound 5 µg/mL
partner 1.073 µg/mL	–	0.934	–	0.955	–	0.972
partner 1.25 µg/mL	≥ 1	–	≥ 1	–	0.99	–
partner 2.145 µg/mL	–	0.932	–	0.858	–	0.846
partner 2.5 µg/mL	≥ 1	–	≥ 1	–	0.888	–
partner 4.29 µg/mL	–	0.905	–	0.884	–	0.94
partner 5 µg/mL	≥ 1	–	≥ 1	–	0.984	–

Cc1onc(-c2ccccc2)c1C(=O)N[C@@H]1C(=O)N2[C@@H]1SC(C)(C)[C@@H]2C(=O)O [Oxacillin] + CC1(C)S[C@@H]2[C@H](NC(=O)Cc3ccccc3)C(=O)N2[C@H]1C(=O)O [Penicillin G]
fitness, [3]
Details	partner 0.0195 µg/mL	partner 0.039 µg/mL	partner 0.078 µg/mL
first compound 0.0156 µg/mL	0.768	0.748	0.727
first compound 0.0312 µg/mL	0.659	0.688	0.66
